25 molecules from US20060153888A1, “Methods for scavenging oxidizing nitrogen and oxygen species with fragrances having antioxidative properties” (Access Business Group International LLC, priority 2004, published 2006) can be followed below.

Experiment [1] is described as follows: DPPH Spectrophotometer Assay (free radical scavenging). The class given is biochemical. The note with it: for DPPH EC50: Table 5; for antioxidant properties in words: comment on DPPH and NORA results of Table 5; for antioxidant capacity in words: in both DPPH and nitric oxide free radical systems, Table 3. An excerpt: The free radical 2,2-Diphenyl-1-picrylhydrazyl (DPPH) may be used to determine free radical scavenging ability of test materials such as a scavenging agent of the present invention. […] Measurements are taken after the reaction between the test scavenging agent and DPPH reaches steady state. DPPH is a free radical that changes color when it reacts with an antioxidant. The color change in DPPH is an indication of antioxidant power. […] Thus, DPPH serves as a model for free radical oxidation. Provided below are details for conducting a DPPH Spectrophotometer Assay:
Weigh 100 mg sample into 15 ml conical centrifuge tube.
Add 1 ml DMSO. Vortex to mix.
Dilute samples in MeOH according to Table 2.
Dilute 1 mM DPPH (prepared in 80% MeOH) to 100 uM in 80% MeOH.
In 3 ml cuvette, add 200 uL sample dilution. Add 1.8 ml of 100 uM DPPH.
Mix well. Incubate 15 min at Room Temp. Read at […].
If cuvette appears cloudy due to precipitation of sample, prepare sample dilutions (Table 2) in DMF (or suitable solvent) instead of DMSO. Also prepare DPPH working solution (100 uM) in DMF (or suitable solvent) instead of MeOH.
In general terms: Loss of DPPH colour is used to gauge radical scavenging.

Experiment [2] is described as follows: Nitric Oxide Radical Absorbance (NORA) assay. The class given is biochemical. The note with it: for inhibitory response for nitric oxide in words: comment on Table 3. As for the experimental part: The NORA assay determines the ability of a compound to quench nitric oxide free radicals (NO*) produced by a NO* generator. In the assay, a target compound is oxidized using the nitric oxide generator NOR-3, resulting in increased fluorescence. […] Provided below are details for conducting a Nitric Oxide Radical Absorbance (NORA) Assay:
DHR123: 1.0 mg/3 ml MeOH=1 mM stock (Freeze and protect from light) 7.5 uL stock/10 ml Buffer=0.75 uM working solution.
NOR-3: 1.0 mg NOR-3/100 uL DMSO.
Oil: Weigh 100 mg into 15 ml polypropylene centrifuge tube. Add 5 ml
Prepare sample dilution in a 96-well polypropylene storage plate (2 mL/well), the dilution plate: • A. 60 uL Stock+1.94 ml DMF=200 ug/ml • B. 500 uL 200 ug/ml+500 ul DMF=100 ug/ml • C.
Positive Control: (1 uM Uric Acid)
Add 100 uL of each sample/PC/Blank in duplicate. Row H will contain PC only.
Add 70 uL Phosphate Buffer to all wells.
Add 30 uL NOR-3 to all wells.
Incubate plate 15 min at room temperature.

Where [3] appears, read: amount of test material required to inhibit nitric oxide oxidation by 50%, Table 3.
[4] abbreviates: Antioxidant Power equals 1/EC50, fragrant oils, Table 1.

SMILES strings stand for the structures.

As to `OCCOc1ccccc1` [2-Phenoxyethanol], the “DPPH EC50” value in experiment [1] is given as over 2.82 g/g DPPH. For the same molecule, in experiment [2] (Table 5), the “NORA EC50” value is over 10.0 µg/mL.

In the case of `OCCCc1ccccc1` [3-Phenyl-1-propanol], in experiment [1], the “DPPH EC50” value was over 2.82 g/g DPPH. For the same molecule, in experiment [2] (Table 5), the “NORA EC50” value is over 10.0 µg/mL.

Take `Cc1cc(C(C)(C)C)c(O)c(C(C)(C)C)c1` [BHT, butylated hydroxytoluene]: the “DPPH EC50” value in experiment [1] was found to be 0.15 g/g DPPH. For the same molecule, in experiment [2] (Table 5), the “NORA EC50” value is over 10.0 µg/mL.

On to `CC12CCC(CC1=O)C2(C)C` (stereo not drawn) [Camphor], for which the “DPPH EC50” value in experiment [1] is over 2.82 g/g DPPH. In addition, the “NORA EC50” value in experiment [2] (Table 5) is over 10.0 µg/mL.

As to `OCC=Cc1ccccc1` [Cinnamyl alcohol], the “DPPH EC50” value in experiment [1] is on record as over 2.82 g/g DPPH. Also, the “NORA EC50” value in experiment [2] (Table 5) was 11.8 µg/mL.

As for `O=c1ccc2ccccc2o1` [Coumarin], in experiment [1], the “DPPH EC50” value was over 2.82 g/g DPPH. Also, the “NORA EC50” value in experiment [2] (Table 5) was over 10.0 µg/mL.

Regarding `CCCCCCCCC(=O)OCC` [Ethyl monanoate], the “DPPH EC50” value in experiment [1] is given as over 2.82 g/g DPPH. Besides, the “NORA EC50” value in experiment [2] (Table 5) was over 10.0 µg/mL.

Consider `CCOC(=O)c1ccc(O)cc1` [Ethyl paraben], for which the “DPPH EC50” value in experiment [1] is over 2.82 g/g DPPH. The “NORA EC50” value in experiment [2] (Table 5) was over 10.0 µg/mL.

For `C=CCc1ccc(O)c(OC)c1` [Eugenol], in experiment [1], the “DPPH EC50” value is on record as 0.12 g/g DPPH and the “antioxidant properties in words” value is listed as “excellent antioxidant properties”. Further, the “NORA EC50” value in experiment [2] (Table 5) was found to be 0.8 µg/mL.

Regarding `COc1cc(/C=C/C(=O)O)ccc1O` [Ferulic acid], in experiment [1], the “DPPH EC50” value was 0.19 g/g DPPH and the “antioxidant properties in words” value is reported as “excellent antioxidant properties”. Besides, the “NORA EC50” value in experiment [2] (Table 5) turned out to be 0.3 µg/mL.

As for `CC(C)CC1CC(C)(O)CCO1` (stereo not drawn) [Florosa (Q), Florosa], in experiment [2] (setting [3]), the “NORA EC50” value came out at 150.33 µg/mL.

`CCCCCC1COCCC1OC(C)=O` (stereo not drawn) [Jasmopyrane (Q), Jasmopyrane]: the “NORA EC50” value in experiment [2] (setting [3]) is 150.44 µg/mL. Besides, the “inhibitory response for nitric oxide in words” value in experiment [2] is given as “performed more poorly than did lilial”.

As for `CC(C=O)Cc1ccc(C(C)(C)C)cc1` (stereo not drawn) [Lilial (G), Lilial], in experiment [2] (setting [3]), the “NORA EC50” value stood at 23.70 µg/mL. Besides, in experiment [2], the “inhibitory response for nitric oxide in words” value is given as “better than expected inhibitory response”.

Regarding `C=C(C)[C@H]1CC=C(C)CC1` [Limonene], the “DPPH EC50” value in experiment [1] is recorded as over 2.82 g/g DPPH. Moreover, the “NORA EC50” value in experiment [2] (Table 5) is over 10.0 µg/mL.

Regarding `Cc1occc(=O)c1O` [Maltol], in experiment [1], the “DPPH EC50” value was found to be 2.82 g/g DPPH and the “antioxidant properties in words” value is “performed marginally well”. The “NORA EC50” value in experiment [2] (Table 5) was found to be 10.0 µg/mL.

For `CC1CCC(C(C)C)C(O)C1` (stereo not drawn) [Menthol], in experiment [1], the “DPPH EC50” value is on record as over 2.82 g/g DPPH. In addition, in experiment [2] (Table 5), the “NORA EC50” value was over 10.0 µg/mL.

For `Cc1ccc(C(C)C)cc1` [Paracymene], in experiment [2] (setting [3]), the “NORA EC50” value worked out at 274.16 µg/mL.

As for `CC(=O)CCc1ccc(O)cc1` [Raspberry Ketone], the “antioxidant capacity in words” value in experiment [1] is given as “greatest antioxidant capacity”. Further, the “NORA EC50” value in experiment [2] (setting [3]) came to 10.14 µg/mL.

`Oc1cccc(O)c1` [Resorcinol]: in experiment [1], the “DPPH EC50” value is given as 0.74 g/g DPPH and the “antioxidant properties in words” value is on record as “good responses”. Moreover, in experiment [2] (Table 5), the “NORA EC50” value was over 10.0 µg/mL.

Turning to `Cc1ccc(C(C)C)c(O)c1` [Thymol], in experiment [1], the “DPPH EC50” value came to 0.65 g/g DPPH and the “antioxidant properties in words” value is reported as “good responses”. Besides, the “NORA EC50” value in experiment [2] (Table 5) is over 10.0 µg/mL.

In the case of `Cc1c(C)c2c(c(C)c1O)CCC(C)(C(=O)O)O2` (stereo not drawn) [Trolox, reference compound], the “NORA EC50” value in experiment [2] (setting [3]) was determined as 0.046 µg/mL.

Regarding `O=c1[nH]c(=O)c2[nH]c(=O)[nH]c2[nH]1` [Uric Acid, reference compound], the “NORA EC50” value in experiment [2] (setting [3]) is 0.84 µg/mL.

As for `COc1cc(C=O)ccc1O` [Vanillin], the “DPPH *AO Power” value in experiment [1] (setting [4]) came out at 0.0112 units/gram. For the same molecule, the “antioxidant capacity in words” value in experiment [1] is “greatest antioxidant capacity”. For the same molecule, in experiment [2] (setting [4]), the “NORA AO Power” value is listed as 93 units/gram. Further, the “NORA EC50” value in experiment [2] (setting [3]) came out at 8.95 µg/mL.

With `COc1cc(CO)ccc1O` [Vanillyl alcohol], in experiment [1], the “DPPH EC50” value worked out at 0.16 g/g DPPH and the “antioxidant properties in words” value is on record as “excellent antioxidant properties”. Moreover, the “NORA EC50” value in experiment [2] (Table 5) was 4.1 µg/mL.

For `COc1cccc(CO)c1` [m-Anisyl alcohol], the “DPPH EC50” value in experiment [1] is over 2.82 g/g DPPH. Further, the “NORA EC50” value in experiment [2] (Table 5) is over 10.0 µg/mL.
